Our source for the pest or weed control and chromatographic logP values is US10051861B2, “N-arylamidine-substituted trifluoroethyl sulfide derivatives as acaricides and insecticides” (BAYER CROPSCIENCE AG, priority 2011, dated 2018).

Each structure is given as a SMILES string. Where two headings read alike, the source gives them in different places.

The subject of data set [1] is greenhouse red spider mite (Tetranychus urticae). The data set can be described thus: Tetranychus urticae spray test, OP-resistant (TETRUR), bean leaf disks. Type of data set: in vivo. The conditions noted are these: Tetranychus urticae, foliar, 144 h, read-out: efficacy (spider mites killed). On the procedure: After 6 days, the effect in % is determined.
The test system of data set [2] is larvae of the mustard beetle (Phaedon cochleariae). The data set is described as follows: Phaedon cochleariae spray test (PHAECO). The conditions noted are these: Phaedon cochleariae, 168 h, read-out: effect (beetle larvae killed).
The nature of data set [3]: logP by HPLC on reversed-phase columns (C 18), EEC Directive 79/831 Annex V.A8. Type of data set: physicochemical. On the procedure: Calibration is carried out using unbranched alkan-2-ones (having from 3 to 16 carbon atoms) with known log P values (the log P values are determined by the retention times using linear interpolation between two successive alkanones).
Setting [4] is: application rate 500 g/ha, after 6 days.
The mark [5] stands for this setting: reversed-phase C18 HPLC column, pH 2.7, [a] LC-MS, acidic range, pH 2.7, 0.1% aqueous formic acid/acetonitrile, read-out: logP(HCOOH).
Setting [6] is: reversed-phase C18 HPLC column, pH 7.8, [b] LC-MS, neutral range, pH 7.8, 0.001 molar aqueous ammonium bicarbonate/acetonitrile, read-out: logP(neutral).

For the compound `N/C(=N/c1cc(SCC(F)(F)F)c(Br)cc1Br)C(F)(F)F` [Ia-28], the pest or weed control at 500 g/ha in data set [1] (setting [4]) and in data set [2] was 100% throughout.

Turning to `Cc1cc(F)c(/N=C(\N)C2(Cl)CC2F)cc1SCC(F)(F)F` (stereo not shown) [Ia-29], the pest or weed control at 500 g/ha in data set [1] (setting [4]) and in data set [2] was 100% throughout.

Consider `Cc1cc(F)c(/N=C(\N)C2CC2F)cc1SCC(F)(F)F` (stereo not shown) [Ia-33], for which the pest or weed control at 500 g/ha came out at 100% in data set [1] (setting [4]) and 83% in data set [2].

Take `CN(C)/C(=N/c1cc(SCC(F)(F)F)c(Cl)cc1F)C(F)(F)F` [Ia-35]: the pest or weed control at 500 g/ha in data set [1] (setting [4]) and in data set [2] was 100% each time.

In the case of `Cc1cc(Cl)c(/N=C(\N)C2(Cl)CC2)cc1SCC(F)(F)F` [Ia-36], the pest or weed control at 500 g/ha in data set [1] (setting [4]) and in data set [2] was 100% throughout.

In the case of `Cc1cc(Cl)c(/N=C(\N)C(F)(F)C(F)(F)F)cc1SCC(F)(F)F` [Ia-38], the pest or weed control at 500 g/ha in data set [1] (setting [4]) and in data set [2] was 100% each time.

As to `Cc1cc(F)c(/N=C2\SCC(=O)N2CC(F)(F)F)cc1SCC(F)(F)F` [Ia-175, 2-({2-Fluoro-4-methyl-5-[(2,2,2-trifluoroethyl)sulfanyl]phenyl}imino)-3-(2,2,2-trifluoroethyl)-1,3-thiazolidin-4-one], the values for the chromatographic logP in data set [3] (setting [5]) and in data set [3] (setting [6]) were 4.09 and 3.99, respectively. Besides, the pest or weed control at 500 g/ha in data set [1] (setting [4]) was 90%.

`CN/C(=N/c1cc(SCC(F)(F)F)c(C)cc1F)c1ccc(C(F)(F)F)cc1` [Ia-250, N′-{2-Fluoro-4-methyl-5-[(2,2,2-trifluoroethyl)sulfanyl]phenyl}-N-methyl-4-(trifluoromethyl)benzenecarboximidamide]: the chromatographic logP turned out to be 1.96 in data set [3] (setting [5]) and 4.08 in data set [3] (setting [6]). Further, the pest or weed control at 500 g/ha in data set [1] (setting [4]) came to 90%.

As to `Cc1cc(F)c(/N=C(\NCC2CCC(C(F)(F)F)CC2)C2CC2)cc1SCC(F)(F)F` (stereo not shown) [Ia-251], in data set [3] (setting [5]), the chromatographic logP was 2.23. For the same compound, the pest or weed control at 500 g/ha in data set [1] (setting [4]) turned out to be 90%.

Regarding `Cc1cc(F)c(/N=C2/NCCCS2)cc1SCC(F)(F)F` [Ia-278, 2-fluoro-4-methyl-N-[1,3-thiazinan-2-ylidene]-5-[(2,2,2-trifluoroethyl)sulfanyl]anilinium chloride], the chromatographic logP in data set [3] ([a] LC-MS, acidic range, pH 2.7, 0.1% aqueous formic acid/acetonitrile, read-out: logP(HCOOH)) came out at 1.34. Besides, in data set [1], the pest or weed control at 500 g/ha is 90%.

As to `CN/C(=N/c1cc([S+]([O-])CC(F)(F)F)c(Cl)cc1Cl)C(F)(F)F` (stereo not shown) [Ib-21], the chromatographic logP in data set [3] (setting [5]) and in data set [3] (setting [6]) was 3.32 each time. Moreover, in data set [1] (setting [4]), the pest or weed control at 500 g/ha is 100%.

Regarding `Cc1cc(F)c(/N=C(/Nc2ccccc2)C(F)(F)F)cc1[S+]([O-])CC(F)(F)F` (stereo not shown) [Ib-49], the results for the chromatographic logP in data set [3] (setting [5]) and in data set [3] (setting [6]) were 3.22 and 3.12, respectively. Also, the pest or weed control at 500 g/ha in data set [1] (setting [4]) amounted to 100%.

Regarding `Cc1cc(F)c(/N=C(\N)c2cnccn2)cc1[S+]([O-])CC(F)(F)F` (stereo not shown) [Ib-62, N′-{2-Fluoro-4-methyl-5-[(2,2,2-trifluoroethyl)sulfinyl]phenyl}pyrazine-2-carboximidamide], the chromatographic logP in data set [3] (setting [5]) was 0.84; in data set [3] (setting [6]) it was 1.77. The pest or weed control at 500 g/ha in data set [1] (setting [4]) came out at 100%.

Take `Cc1cc(F)c(/N=C2\SCC(=O)N2CC(F)(F)F)cc1[S+]([O-])CC(F)(F)F` (stereo not shown) [Ib-71, 2-({2-Fluoro-4-methyl-5-[(2,2,2-trifluoroethyl)sulfinyl]phenyl}imino)-3-(2,2,2-trifluoroethyl)-1,3-thiazolidin-4-one]: the chromatographic logP stood at 2.93 in data set [3] (setting [5]) and 2.87 in data set [3] (setting [6]). Further, the pest or weed control at 500 g/ha in data set [1] (setting [4]) was 100%.

Consider `COc1ccc(N/C(=N/c2cc([S+]([O-])CC(F)(F)F)c(C)cc2F)C(F)(F)F)cc1` (stereo not shown) [Ib-86], for which the chromatographic logP in data set [3] (setting [5]) amounted to 3.04; in data set [3] (setting [6]) it was 3.05. The pest or weed control at 500 g/ha in data set [1] (setting [4]) is 100%.
